The subject of one experiment is HUVEC. In words: Cytotoxicity against HUVEC assessed as cell viability after 48 hrs by MTT assay. The class given is cell-based. The conditions noted are these: Homo sapiens. (In general: Tetrazolium assays rely on reduction of a dye to a coloured formazan, in cell work by metabolically active cells.)
In experiment [1] the test system is MDA-MB-231. As to the kind of experiment: Potency index, ratio of etoposide IC50 to compound IC50 for human MDA-MB-231 cells. The class given is functional.
For experiment [2], the system named is CCRF-CEM. In words: Antiproliferative activity against human CCRF-CEM cells assessed as cell viability after 72 hrs by MTT assay. Type of experiment: functional, cell-based.
Experiment [3] relates to HeLa. In words: Antiproliferative activity against human HeLa cells assessed as cell viability after 72 hrs by MTT assay. Type of experiment: functional, cell-based.
For experiment [4], the system named is A549. In words: Antiproliferative activity against human A549 cells assessed as cell viability after 72 hrs by MTT assay. Type of experiment: functional, cell-based. The conditions noted are these: A549, 72 h.
The test system of experiment [5] is MDA-MB-231. As to the kind of experiment: Antiproliferative activity against human MDA-MB-231 cells assessed as cell viability after 72 hrs by MTT assay. As to conditions: MDA-MB-231, 72 h. Type of experiment: functional, cell-based.
Experiment [6] has as its system MCF7. As to the kind of experiment: Selectivity index, ratio of IC50 for HUVEC to IC50 for human MCF7 cells.
The test system of experiment [7] is A549. As to the kind of experiment: Selectivity index, ratio of IC50 for HUVEC to IC50 for human A549 cells.
Experiment [8] concerns Jurkat. As to the kind of experiment: Selectivity index, ratio of IC50 for HUVEC to IC50 for human Jurkat cells.
In experiment [9] the test system is CCRF-CEM. As to the kind of experiment: Selectivity index, ratio of IC50 for HUVEC to IC50 for human CCRF-CEM cells.
Experiment [10] deals with HeLa. In words: Selectivity index, ratio of IC50 for HUVEC to IC50 for human HeLa cells.
Experiment [11] concerns Jurkat. In words: Antiproliferative activity against human Jurkat cells assessed as cell viability after 72 hrs by MTT assay. Type of experiment: functional, cell-based.
The subject of experiment [12] is MCF7. As to the kind of experiment: Antiproliferative activity against human MCF7 cells assessed as cell viability after 72 hrs by MTT assay. As to conditions: MCF7, 72 h. Type of experiment: functional, cell-based.
Experiment [13] is described as follows: Selectivity index, ratio of IC50 for HUVEC to IC50 for human MDA-MB-231 cells.

Turning to `Brc1ccc(NC2=NCc3c([nH]c4ccccc34)S2)cc1`, the IC50 (commonly the concentration that inhibits the measured activity by half) with HUVEC is 64.8 µM; with CCRF-CEM [2], below 10 µM; in the experiment with HeLa [3], 30 µM; with A549 [4], 32 µM; with MDA-MB-231 [5], 8.6 µM; in the experiment with Jurkat [11], 8.3 µM. Besides, the half-maximal inhibitory concentration (IC50) in the experiment on MCF7 [12] turned out to be 29.8 µM. For the same molecule, the “Ratio IC50” value is 2 in the experiment on MDA-MB-231 [1]; 2.2 in the experiment on MCF7 [6]; 2 in the experiment with A549 [7]; 7.8 with Jurkat [8]; above 6.5 in the experiment with CCRF-CEM [9]; 2.2 with HeLa [10]. The “Ratio IC50” value in experiment [13] was 7.5.

Regarding `Fc1ccc(NC2=NCc3c([nH]c4ccccc34)S2)cc1`, the concentration for half-maximal inhibition (IC50) in the experiment on HUVEC is 42 µM; in the experiment on CCRF-CEM [2] it was 1.7 µM; in the experiment with HeLa [3], 21.7 µM; in the experiment on A549 [4], 29 µM; in the experiment on MDA-MB-231 [5] it was 8.9 µM; in the experiment on Jurkat [11] it was 8 µM. Moreover, the half-inhibitory concentration (IC50) in the experiment on MCF7 [12] was 33.8 µM. Further, the “Ratio IC50” value with MDA-MB-231 [1] turned out to be 2; with MCF7 [6] it was 1.2; in the experiment with A549 [7] it was 1.4; with Jurkat [8], 5.3; with CCRF-CEM [9], 24.7; with HeLa [10], 1.9. Moreover, the “Ratio IC50” value in experiment [13] was 4.7.
